According to patent publication US10517846B2, “Pharmaceutical compositions for treating acne” (Dr. Reddy's Laboratories Ltd., priority 2016, dated 2019):
≈ marks a conversion by molar mass, not a printed value.

Assays:
[1] = Solubility studies for isotretinoin using non-aqueous solvents; assay type: physicochemical; conditions: organic solvent or mixture
Description: Solubility studies for isotretinoin were carried out using non-aqueous solvents as mentioned in table 1.

[2] = oral; patients with severe acne; cited from earlier work
[3] = cited from earlier work

solubility ([1]; solvent Acetone): 30 mg/mL (≈ 99.9 mM)
solubility ([1]; solvent Dichloromethane): 12 mg/mL (≈ 39.9 mM)
solubility ([1]; solvent Ethanol): 10 mg/mL (≈ 33.3 mM)
solubility ([1]; solvent Isopropyl alcohol): 12 mg/mL (≈ 39.9 mM)
solubility ([1]; solvent Methanol): 10 mg/mL (≈ 33.3 mM)
SMILES: CC1=C(/C=C/C(C)=C/C=C/C(C)=C\C(=O)O)C(C)(C)CCC1 [isotretinoin, (2Z,4E,6E,8E)-3,7-dimethyl-9-(2,6,6-trimethylcyclohex-1-en-1-yl)nona-2,4,6,8-tetraenoic acid]
long-term remission, share of patients [2]: about 80%
water solubility [3]: very low water solubility
